As a reminder, the IC50 is the concentration that inhibits the measured activity by half.

Each structure is given as a SMILES string.

The values that follow come from patent publication US12595252B2, “Inhibitors of SARM1” (DISARM THERAPEUTICS, INC., priority 2019, dated 2026).

The target of one test is T1, SARM1 (Homo sapiens, UniProt Q6SZW1).
T1 construct: made in house; host or cells: NRK1-HEK293T cells, transiently transfected; clarified lysate used unpurified
T1 sequence (Q6SZW1 with tags, fused parts or gaps): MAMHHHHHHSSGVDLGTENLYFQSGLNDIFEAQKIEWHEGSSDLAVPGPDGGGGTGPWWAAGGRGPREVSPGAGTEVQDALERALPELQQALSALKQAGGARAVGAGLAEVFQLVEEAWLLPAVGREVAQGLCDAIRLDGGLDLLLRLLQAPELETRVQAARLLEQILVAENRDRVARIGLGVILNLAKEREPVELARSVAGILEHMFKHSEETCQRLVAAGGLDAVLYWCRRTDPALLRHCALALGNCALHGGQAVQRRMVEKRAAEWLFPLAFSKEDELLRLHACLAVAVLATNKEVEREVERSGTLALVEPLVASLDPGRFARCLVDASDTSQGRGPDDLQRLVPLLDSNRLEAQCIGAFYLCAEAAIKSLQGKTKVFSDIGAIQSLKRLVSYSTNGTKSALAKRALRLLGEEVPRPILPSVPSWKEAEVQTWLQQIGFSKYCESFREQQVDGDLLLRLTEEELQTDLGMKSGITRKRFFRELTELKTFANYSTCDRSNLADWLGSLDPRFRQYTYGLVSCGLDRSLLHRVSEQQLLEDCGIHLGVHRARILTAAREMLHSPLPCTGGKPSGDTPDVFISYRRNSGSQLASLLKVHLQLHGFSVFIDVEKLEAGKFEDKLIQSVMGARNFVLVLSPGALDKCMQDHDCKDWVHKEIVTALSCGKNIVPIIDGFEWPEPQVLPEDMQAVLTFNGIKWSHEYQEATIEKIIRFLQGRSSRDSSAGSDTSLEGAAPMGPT
The test is described as follows: ARM-SAM-TIR SARM1 IC50 assay (NADase activity, NAD+ cleavage).
Conditions: not given
In kind it is biochemical. Here is the method:
This Example describes an assay of ARM-SAM-TIR NADase activity and use of this assay to measure the efficacy of compounds of Formula I to block SARM1 mediated NAD+ cleavage. This assay is optimized in such a way as to characterize the efficacy of the compounds in Formula I to inhibit SARM1 activity and to calculate an IC50 value for each compound. This assay makes use of full length SARM1, which encompasses the ARM, SAM and TIR domains.
NRK1-HEK293T cells were seeded onto 150 cm^2 plates at 20×10^6 cells per plate. The next day, the cells were transfected with 15 μg ARM-SAM-TIR expression plasmid, SEQ ID NO: 1.
The cultures were supplemented with 1 mM NR at time of transfection to minimize toxicity from ARM-SAM-TIR overexpression. Forty-eight hours after transfection, cells were harvested, pelleted by centrifugation at 1,000 rpm (Sorvall ST 16R centrifuge, Thermo Fisher), and washed once with cold PBS (0.01 M phosphate buffered saline NaCl 0.138 M; KCl 0.0027 M; pH 7.4). The cells were resuspended in PBS with protease inhibitors (cOmplete™ protease inhibitor cocktail, Roche product #11873580001) and cell lysates were prepared by sonication (Branson Sonifer 450, output=3, 20 episodes of stroke). The lysates were centrifuged (12,000×g for 10 min at 4° C.) to remove cell debris and the supernatants (containing ARM-SAM-TIR protein) were stored at −80° C. for later use in the in vitro ARM-SAM-TIR NADase assay (see below). Protein concentration was determined by the Bicinchoninic (BCA) method and used to normalize lysate concentrations.
The enzymatic assay was performed in a 384-well polypropylene plate in Dulbecco's PBS buffer in a final assay volume of 20 μL. ARM-SAM-TIR lysate with a final concentration of 5 μg/mL was pre-incubated with the respective compound at 1% DMSO final assay concentration over 2 h at room temperature. The reaction was initiated by addition of 5 μM final assay concentration of NAD+ as substrate. After a 2 hr room temperature incubation, the reaction was terminated with 40 μL of stop solution of 7.5% trichloroacetic acid in acetonitrile. The NAD+ and ADPR concentrations were analyzed by a RapidFire High Throughput Mass Spectrometry System (Agilent Technologies, Santa Clara, Calif.) using an API4000 triple quadrupole mass spectrometer (AB Sciex Framingham, Mass.).
`CCOc1cncc(NCc2ccc(C)nc2)n1` [Example 9]: the IC50 lay in the range of 5 to 15 µM.
Still for that read-out and setting: as for `COc1cncc(NCc2ccc(Cl)nc2)n1` [Example 44], the figure is 5 to 15 µM.

Still in this test, the particulars now being: ARM-SAM-TIR lysate 5 μg/mL from NRK1-HEK293T cells; 2 h pre-incubation; 5 μM NAD+; 2 hr room temperature; NAD+ and ADPR by RapidFire MS; read-out: SARM1 IC50.
Turning to `CNC(=O)c1cncc(NC)n1` [Example 164], the IC50 was above 30 µM.
On the same count and under the same terms, as for `CCN1CCN(c2ccc(CNc3cnccn3)cc2)CC1` [Example 182], the figure is above 30 µM; as for `COc1cncc(NCc2ccc(-c3nnco3)cc2)n1` [Example 146], 5 to 15 µM; as for `COc1cncc(NCc2cnc(C)s2)n1` [Example 70], 5 to 15 µM.
Regarding `CCCOc1cncc(NCc2cnn(C)c2)n1` [Example 170], the IC50 is above 30 µM.
The same measure, in the same setting: as for `COc1cncc(NCc2ccc(Br)c(C)c2)n1` [Example 100], the figure is 5 to 15 µM; as for `COc1cncc(N(C)Cc2cccnc2)n1` [Example 202], above 30 µM.
The same measure, in the same setting: the same measure for `CCOc1cncc(NC(=O)c2cccnc2)n1` [Example 191]: above 30 µM.
With `COc1cncc(NCc2cnn(-c3ccccc3)c2)n1` [Example 73], the IC50 is 5 to 15 µM.
`CNc1nccc(OC)n1` [Example 162]: the IC50 was above 30 µM.
`COc1cncc(NCc2cnc(N3CCNCC3C)nc2)n1` (stereo not drawn) [Example 112]: the IC50 is 5 to 15 µM.
The same measure, in the same setting: as for `COc1cncc(NCc2cnn(C3CCN(C(C)=O)CC3)c2)n1` [Example 134], the figure is 15 to 30 µM.
On the same count and under the same terms, as for `COc1cncc(NCCCc2ccccc2)n1` [Example 33], the figure is 5 to 15 µM; as for `Cc1ncc(Cl)nc1NCc1cccnc1` [Example 201], above 30 µM; as for `COc1cncc(NCc2ccc(-c3ccccc3)nc2)n1` [Example 142], 5 to 15 µM.
Consider `Brc1cncc(CCc2ccccc2)n1` [Example 72], for which the IC50 is above 30 µM.
`c1cncc(CNc2cncc(OCC3CCCC3)n2)c1` [Example 199]: the IC50 was above 30 µM.
On to `COc1cncc(NCC2CCOC2)n1` (stereo not drawn) [Example 50], for which the IC50 lay within 15 to 30 µM.
The same measure, in the same setting: the same measure for `COc1cncc(NCc2ccc(N3CCNC(=O)C3)nc2)n1` [Example 114]: 5 to 15 µM; for `COc1cncc(NCc2ccc(N3CCN(C(=O)OC(C)(C)C)CC3)nc2)n1` [Example 132]: 5 to 15 µM; for `COc1cncc(NCc2cnc[nH]2)n1` [Example 61]: below 5 µM.
Take `COc1cncc(NCc2cnn(C3CCCCC3)c2)n1` [Example 106]: the IC50 was 5 to 15 µM.
For the compound `COc1cncc(NC(=O)c2ccc3ccc(Cl)cc3n2)n1` [Example 46], the IC50 is above 30 µM.
Consider `COc1cncc(NCc2cnn(C(C)C)c2)n1` [Example 92], for which the IC50 was 5 to 15 µM.
Same read-out and setting: as for `COc1cncc(C(=O)NCc2ccccc2)n1` [Example 196], the figure is above 30 µM.
As to `COc1cncc(NCc2ccc(NCCN(C)C)nc2)n1` [Example 113], the IC50 fell in the range of 5 to 15 µM.
Take `COc1cncc(NCc2cnn(C3CCNCC3)c2)n1` [Example 105]: the IC50 is below 5 µM.
Regarding `COc1cncc(NCc2ccc(N3CCC(O)CC3)nc2)n1` [Example 80], the IC50 lay within 5 to 15 µM.
On to `COc1cncc(NCc2ccccc2F)n1` [Example 85], for which the IC50 was in the range of 5 to 15 µM.
The same measure, in the same setting: as for `COc1cc(NCc2cc[nH]c(=O)c2)cnn1` [Example 176], the figure is above 30 µM.
`Cn1cc(CNc2cncc(OCC(F)F)n2)cn1` [Example 116]: the IC50 is 15 to 30 µM.
As to `COc1cncc(NCc2cnn(C3CCN(S(C)(=O)=O)CC3)c2)n1` [Example 107], the IC50 fell in the range of 5 to 15 µM.
`COc1cncc(NCc2ccc(NS(C)(=O)=O)nc2)n1` [Example 133]: the IC50 was in the range of 5 to 15 µM.
As to `Brc1cncc(OCc2cccnc2)n1` [Example 188], the IC50 is above 30 µM.
On to `COc1ncc(NCc2cccnc2)nc1OC` [Example 43], for which the IC50 is 15 to 30 µM.
The same measure, in the same setting: the same measure for `COc1cncc(NCc2cccc(N3CCNCC3)c2)n1` [Example 126]: 5 to 15 µM.
The same measure, in the same setting: as for `Cn1cc(CNc2cncc(NCCCCO)n2)cn1` [Example 151], the figure is 5 to 15 µM.
As to `COc1cncc(NCc2ccc(N3CCN(C(C)C)CC3)nc2)n1` [Example 147], the IC50 lay within 5 to 15 µM.
For `COc1cncc(NCc2cccc(C(N)=O)c2)n1` [Example 65], the IC50 is 5 to 15 µM.
In the case of `Clc1cncc(OCc2cccnc2)n1` [Example 189], the IC50 was above 30 µM.
Turning to `COc1cncc(NCc2ccc(OC(F)(F)F)cc2)n1` [Example 143], the IC50 fell in the range of 5 to 15 µM.
As for `COc1cncc(NCc2cccc(Br)c2)n1` [Example 109], the IC50 is 5 to 15 µM.
On to `CNc1cncc(OC)n1` [Example 152], for which the IC50 was below 5 µM.
With `NC(=O)c1cncc(NCc2cccnc2)n1` [Example 212], the IC50 was above 30 µM.
On to `COc1cncc(NCc2cccnc2)c1C` [Example 34], for which the IC50 is above 30 µM.
As to `COc1cncc(S(=O)(=O)NCc2ccccc2)c1` [Example 207], the IC50 is above 30 µM.
For the compound `COc1cncc(NCc2cn(C)nc2C)n1` [Example 206], the IC50 is above 30 µM.
Take `COc1cncc(NCc2cnn(C3CCN(C)CC3)c2)n1` [Example 119]: the IC50 was below 5 µM.
Consider `c1ccc(COc2cncc(NCc3cccnc3)n2)cc1` [Example 198], for which the IC50 is above 30 µM.
In the case of `COc1cncc(NCc2cn[nH]c2)n1` [Example 20], the IC50 lay within 5 to 15 µM.
With `COc1cncc(NCc2ccc(N3CCN4CCCC4C3)nc2)n1` (stereo not drawn) [Example 131], the 50% inhibitory concentration (IC50) is below 5 µM.
For `COc1cncc(NCc2cc(C)no2)n1` [Example 56], the IC50 lay in the range of 5 to 15 µM.
Consider `Clc1cncc(NCc2cccnc2)n1` [Example 187], for which the IC50 is above 30 µM.
On to `COc1cncc(NCc2cccn2C)n1` [Example 59], for which the 50% inhibitory concentration (IC50) is 15 to 30 µM.
Still for that read-out and setting: as for `COc1cncc(NC(=O)c2cccnc2)c1` [Example 111], the figure is above 30 µM.
Consider `COc1cncc(NCc2cnn(S(C)(=O)=O)c2)n1` [Example 150], for which the IC50 fell in the range of 5 to 15 µM.
Regarding `CCN1CCN(c2ncc(CNc3cncc(OC)n3)cn2)C(C)C1` (stereo not drawn) [Example 122], the IC50 was in the range of 5 to 15 µM.
Same read-out and setting: as for `CNc1cncc(OCCCCNC(=O)OC(C)(C)C)n1` [Example 169], the figure is above 30 µM; as for `COc1cncc(NCc2cnn3ccccc23)n1` [Example 90], 15 to 30 µM; as for `COc1cncc(NCc2cc[nH]c(=O)c2)n1` [Example 66], 5 to 15 µM.
`COc1cncc(NCc2ccc(C(N)=O)cc2)n1` [Example 64]: the IC50 is 5 to 15 µM.
Still for that read-out and setting: the same measure for `COc1cncc(NCc2ccc(N)nc2)n1` [Example 118]: below 5 µM; for `COc1nc(NCc2cccnc2)cnc1C` [Example 35]: 5 to 15 µM; for `COc1cncc(NCc2ccn(C)c(=O)c2)n1` [Example 157]: 15 to 30 µM.
`COc1cncc(NC(C)c2cccnc2)n1` (stereo not drawn) [Example 31]: the IC50 was in the range of 15 to 30 µM.
Still for that read-out and setting: the same measure for `CCOc1cncc(NS(C)(=O)=O)n1` [Example 195]: above 30 µM; for `COc1cnc(NCc2cccnc2)cn1` [Example 203]: above 30 µM; for `OCc1cncc(NCc2cccnc2)n1` [Example 215]: above 30 µM.
Regarding `COc1cc(NC(=O)c2cnccn2)cnn1` [Example 137], the IC50 is above 30 µM.
Still for that read-out and setting: as for `COc1cncc(NCc2ccc(N3CCCCC3)nc2)n1` [Example 84], the figure is 5 to 15 µM.
